These results are taken from US5302398A, “Gastroresistant pharmaceutical formulations for oral administration containing salts of bile acids” (Alfa Wassermann S.p.A., priority 1991, dated 1994).

Structures are written as SMILES. Structures can show the parent of a compound that is named as a salt.

A short description of one data set: pH of 1% (w/v) aqueous solution of the salt. The data set is classed as physicochemical. The conditions noted are these: 1% (w/v) in water. How it is done: The sodium and potassium salts of the ursodeoxycholic acid, whose 1% (w/v) aqueous solutions show pH values respectively equal to 7.80 and 7.90, are prepared in a similar manner.
20 Ml of a 0.5 M aqueous solution (10 mmoles) of 1-(2-hydroxyethyl)pyrrolidine are added under stirring to a suspension containing 3.92 g (10 mmoles) of ursodeoxycholic acid in 50 ml of water prolonging the stirring until complete solubilization. The obtained solution is then freeze-dried obtaining with quantitative yield a white powder corresponding to the salt in object.
The N-methyl-D-glucamine and L-arginine salts of the ursodeoxycholic acid, whose 1% (w/v) aqueous solutions show pH values respectively equal to 8.06 and 7.75, are prepared in a similar manner.
10 Ml of a 1 M aqueous solution (10 mmoles) of choline bicarbonate are added under stirring to a suspension containing 3.92 g (10 mmoles) of ursodeoxycholic acid in 50 ml of water prolonging the stirring until complete solubilization.
As to `C[C@H](CCC(=O)O)[C@H]1CC[C@H]2[C@@H]3[C@@H](O)C[C@@H]4C[C@H](O)CC[C@]4(C)[C@H]3CC[C@]12C` [Example 1, LITHIUM SALT OF THE URSODEOXYCHOLIC ACID], the “pH value of a 1% (w/v) aqueous solution” value turned out to be 8.13.

Consider `C[C@H](CCC(=O)O)[C@H]1CC[C@H]2[C@@H]3[C@@H](O)C[C@@H]4C[C@H](O)CC[C@]4(C)[C@H]3CC[C@]12C` [Example 2, 1-(2-HYDROXYETHYL)PYRROLIDINE SALT OF THE URSODEOXYCHOLIC ACID], for which the “pH value of a 1% (w/v) aqueous solution” value turned out to be 7.90. Still for that read-out and setting: under `C[C@H](CCC(=O)O)[C@H]1CC[C@H]2[C@@H]3[C@@H](O)C[C@@H]4C[C@H](O)CC[C@]4(C)[C@H]3CC[C@]12C` [Example 3, CHOLINE SALT OF THE URSODEOXYCHOLIC ACID] stands 7.40; under `C[C@H](CCC(=O)O)[C@H]1CC[C@H]2[C@@H]3[C@@H](O)C[C@@H]4C[C@H](O)CC[C@]4(C)[C@H]3CC[C@]12C` [L-arginine salt of the ursodeoxycholic acid], 7.75.

For `C[C@H](CCC(=O)O)[C@H]1CC[C@H]2[C@@H]3[C@@H](O)C[C@@H]4C[C@H](O)CC[C@]4(C)[C@H]3CC[C@]12C` [N-methyl-D-glucamine salt of the ursodeoxycholic acid], the “pH value of a 1% (w/v) aqueous solution” value is 8.06. Still for that read-out and setting: under `C[C@H](CCC(=O)O)[C@H]1CC[C@H]2[C@@H]3[C@@H](O)C[C@@H]4C[C@H](O)CC[C@]4(C)[C@H]3CC[C@]12C` [potassium salt of the ursodeoxycholic acid] stands 7.90; under `C[C@H](CCC(=O)O)[C@H]1CC[C@H]2[C@@H]3[C@@H](O)C[C@@H]4C[C@H](O)CC[C@]4(C)[C@H]3CC[C@]12C` [sodium salt of the ursodeoxycholic acid], 7.80.

Assay in another data set: not given
Conditions: intestinal bacterial flora; pH lower than 8.4; cited from earlier work.
For the compound `C[C@H](CCC(=O)O)[C@H]1CC[C@H]2[C@@H]3[C@@H](O)C[C@@H]4C[C@H](O)CC[C@]4(C)[C@H]3CC[C@]12C` [ursodeoxycholic acid], the “biotransformation of the unabsorbed portion” value is on record as “undergoes a biotransformation to litocholic acid”.
